Test results as given in patent US6964975B2, “Isoxazole and thiazole compounds and use thereof as medicine” (Kirin Beer Kabushiki Kaisha, priority 2000, dated 2005).

Experiments:
[1] = target: T1, human EDG-2 (Homo sapiens, UniProt Q92633); experiment: Inhibitory activity on LPA-induced elevation of intracellular Ca2+ level; type: cell-based; details: 50% inhibition of elevation of intracellular Ca2+ level by LPA, human EDG-2/HepG2 cells, fura-2
T1 construct: cDNA of the cloned human EDG-2 was introduced into pEFneo, which is an animal expression vector; expressed in transfected cells; host or cells: HepG2
Summary of the method: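 Stably transfected HepG2 cells loaded with fura-2/AM (45 min, room temperature) in 0.1% BSA HEPES buffer. Test compound added before LPA, and the LPA-evoked intracellular Ca2+ rise measured fluorometrically. IC50 for inhibition derived.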

[2] = test system: Human EDG-2/HepG2 cells; experiment: Inhibitory activity on LPA-accelerated [3H] thymidine incorporation (cell proliferation); type: cell-based; details: 50% inhibition of LPA-induced increase of [3H] thymidine incorporation
Text: The human EDG-2 expression plasmid was introduced into HepG2 cells by electroporation. After the introduction, culturing was continued while exchanging selective media every 3 to 4 days, thereby obtaining an expressed colony. Regarding these cells, Ca-influx and cell-proliferation by LPA, level of [^3H] LPA binding and the like were inspected to select a cell line which highly expresses human EDG-2 (human EDG-2/HepG2).
Human EDG-2/HepG2 cells suspended in 10% bovine serum-containing DMEM (Dulbecco's modified eagle medium) were plated on a 96-well plate and, on the next day, the medium was exchanged with serum-free DMEM. 24 hours later, the medium was exchanged with DMEM containing LPA or DMEM containing no LPA, cells were cultured for further 16 hours, and [^3H] thymidine was then added. After culturing for 8 hours subsequent to the addition of [^3H] thymidine, cells were washed with PBS (phosphate-buffered saline), and the amount of [^3H] thymidine incorporated into the cells were assayed by Betaplate filter counter system (Amersham Pharmacia Biotech). The difference between the amount of [^3H] thymidine incorporated in the LPA-added well and the amount of [^3H] thymidine incorporated in the well containing no LPA represents the amount of [^3H] thymidine incorporation accelerated by LPA. […] The test compounds were added immediately before the LPA addition.

T1 sequence (Q92633 whole entry): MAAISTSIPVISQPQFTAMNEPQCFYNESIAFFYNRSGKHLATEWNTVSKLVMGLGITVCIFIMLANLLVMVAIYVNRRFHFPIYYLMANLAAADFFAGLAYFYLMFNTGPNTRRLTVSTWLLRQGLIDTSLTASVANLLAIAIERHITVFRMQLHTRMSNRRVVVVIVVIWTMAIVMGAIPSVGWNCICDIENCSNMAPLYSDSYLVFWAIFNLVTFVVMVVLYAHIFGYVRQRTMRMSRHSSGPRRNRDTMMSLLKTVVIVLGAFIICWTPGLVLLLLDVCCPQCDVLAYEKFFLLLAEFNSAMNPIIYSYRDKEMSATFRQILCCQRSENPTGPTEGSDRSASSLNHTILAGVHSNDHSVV

## CCOCc1cccc(-c2onc(C)c2NC(=O)OC(C)c2ccccc2Cl)c1 (stereo not shown) [Compound 129, 1-(2-Chlorophenyl)ethyl N-{5-[3-(ethoxymethyl)phenyl]-3-methyl-4-isoxazolyl}carbamate]
[1]
  IC50: 3000 to 10000 nM
[2]
  IC50: 300 to 1000 nM

## COC(=O)CSCc1cccc(-c2onc(C)c2NC(=O)OC(C)c2ccccc2Cl)c1 (stereo not shown) [Compound 130, Methyl 2-({3-[4-({[1-(2-chlorophenyl)ethoxy]carbonyl}amino)-3-methyl-5-isoxazolyl]-benzyl}sulfanyl)acetate]
[1]
  IC50: 3000 to 10000 nM
[2]
  IC50: 300 to 1000 nM

## CCSCc1cccc(-c2onc(C)c2NC(=O)OC(C)c2ccccc2Cl)c1 (stereo not shown) [Compound 132, 1-(2-Chlorophenyl)ethyl N-(5-{3-[(ethylsulfanyl)methyl]phenyl}-3-methyl-4-isoxazolyl)carbamate]
[1]
  IC50: 3000 nM
[2]
  IC50: 300 to 1000 nM

## COC(=O)CS(=O)(=O)Cc1ccc(-c2onc(C)c2NC(=O)OC(C)c2ccccc2Cl)cc1 (stereo not shown) [Compound 133]
[1]
  IC50: 10000 nM
[2]
  IC50: 100 to 300 nM

## COC(=O)C[S+]([O-])Cc1ccc(-c2onc(C)c2NC(=O)OC(C)c2ccccc2Cl)cc1 (stereo not shown) [Compound 134, Methyl 2-({4-[4-({[1-(2-chlorophenyl)ethoxy]carbonyl}amino)-3-methyl-5-isoxazolyl]-benzyl}sulfinyl)acetate]
[1]
  IC50: 3000 to 10000 nM
[2]
  IC50: 100 to 300 nM

## Cc1noc(-c2ccc(CSCC(O)CO)cc2)c1NC(=O)OC(C)c1ccccc1Cl (stereo not shown) [Compound 135]
[1]
  IC50: 3000 to 10000 nM
[2]
  IC50: 100 to 300 nM

## Cc1noc(-c2ccc(CSc3nc[nH]n3)cc2)c1NC(=O)OC(C)c1ccccc1Cl (stereo not shown) [Compound 136, 1-(2-Chlorophenyl)ethyl N-(3-methyl-5-{4-[(1H-1,2,4-triazol-3-ylsulfanyl)methyl]-phenyl}-4-isoxazolyl)carbamate]
[1]
  IC50: 3000 to 10000 nM
[2]
  IC50: 100 to 300 nM

## Cc1noc(-c2ccc(CSc3nnnn3C)cc2)c1NC(=O)OC(C)c1ccccc1Cl (stereo not shown) [Compound 137, 1-(2-Chlorophenyl)ethyl N-[3-methyl-5-(4-{[(1-methyl-1H-1,2,3,4-tetrazol-5-yl)-sulfanyl]methyl}phenyl)-4-isoxazolyl]carbamate]
[1]
  IC50: 3000 to 10000 nM
[2]
  IC50: 100 to 300 nM

## CNC(=O)CSCc1ccc(-c2onc(C)c2NC(=O)OC(C)c2ccccc2Cl)cc1 (stereo not shown) [Compound 138]
[1]
  IC50: 3000 to 10000 nM
[2]
  IC50: 100 to 300 nM

## Cc1noc(-c2ccc(CSCC(=O)NCc3ccco3)cc2)c1NC(=O)OC(C)c1ccccc1Cl (stereo not shown) [Compound 139, 1-(2-Chlorophenyl)ethyl N-(5-{4-[({2-[(2-furylmethyl)amino]-2-oxoethyl}sulfanyl)-methyl]phenyl)-3-methyl-4-isoxazolyl)carbamate]
[1]
  IC50: 10000 nM
[2]
  IC50: 30 to 100 nM

## CCOC(=O)CSCc1cccc(-c2onc(C)c2NC(=O)OC(C)c2ccccc2Cl)c1 (stereo not shown) [Compound 140, Ethyl 2-({3-[4-({[1-(2-chlorophenyl)ethoxy]carbonyl}amino)-3-methyl-5-isoxazolyl]benzyl}-sulfanyl)acetate]
[1]
  IC50: 3000 to 10000 nM
[2]
  IC50: 300 to 1000 nM

## C=CCSCc1cccc(-c2onc(C)c2NC(=O)OC(C)c2ccccc2Cl)c1 (stereo not shown) [Compound 141, 1-(2-Chlorophenyl)ethyl N-(5-{3-[(allylsulfanyl)methyl]phenyl}-3-methyl-4-isoxazolyl)-carbamate]
[1]
  IC50: 3000 to 10000 nM
[2]
  IC50: 300 to 1000 nM

## Cc1noc(-c2cccc(CSCCc3ccccc3)c2)c1NC(=O)OC(C)c1ccccc1Cl (stereo not shown) [Compound 142, 1-(2-Chlorophenyl)ethyl N-(3-methyl-5-{3-[(phenethylsulfanyl)methyl]phenyl}-4-isoxazolyl)-carbamate]
[1]
  IC50: 3000 to 10000 nM
[2]
  IC50: 300 nM

## Cc1noc(-c2cccc(CSc3nc[nH]n3)c2)c1NC(=O)OC(C)c1ccccc1Cl (stereo not shown) [Compound 143, 1-(2-Chlorophenyl)ethyl N-(3-methyl-5-{3-[(1H-1,2,4-triazol-3-ylsulfanyl)methyl]phenyl}-4-isoxazolyl)carbamate]
[1]
  IC50: 3000 to 10000 nM
[2]
  IC50: 100 to 300 nM
